Measurements reported in the NIST ThermoML archive (doi:10.1021/je9006579).

Experiments:
[1] = molar heat capacity at constant pressure; conditions: 101.33 kPa, Liquid, Cooling curve
[2] = molar heat capacity at constant pressure; xn = mol fraction of the nth substance listed; conditions: 101 kPa, Liquid

CC(=O)OC(C)=O [ethanoic anhydride]
[1]
Conditions | molar heat capacity at constant pressure [J/K/mol]
313.15 K | 200.73
333.15 K | 204.34

CC(=O)O [acetic acid] + CC(=O)OC(C)=O
[2], Cooling curve, x2 = 0
Conditions | molar heat capacity at constant pressure [J/K/mol]
308.15 K | 134.93
313.15 K | 135.5
318.15 K | 136
323.15 K | 136.35
328.15 K | 136.87
333.15 K | 137.21

CC(=O)O [acetic acid]
[1]
Conditions | molar heat capacity at constant pressure [J/K/mol]
313.15 K | 135.5
333.15 K | 137.21

CCCCCCC [heptane]
[1]
Conditions | molar heat capacity at constant pressure [J/K/mol]
313.15 K | 230.37
333.15 K | 240.03

C1N2CN3CN1CN(C2)C3 [1,3,5,7-tetraazaadamantane] + CC(=O)O
molar heat capacity at constant pressure [J/K/mol], [2], Vacuum adiabatic calorimetry
Conditions | x1 = 0.022 | x1 = 0.0454 | x1 = 0.0703 | x1 = 0.0967 | x1 = 0.1249 | x1 = 0.1551 | x1 = 0.1873 | x1 = 0.2221
308.15 K | 137.35 | 144.8 | 151.94 | 159.76 | 170.64 | 180.97 | 191.09 | 203.69
313.15 K | 142.53 | 150.32 | 157.16 | 165.58 | 176.29 | 187.61 | 198.06 | 210.89
318.15 K | 147.51 | 155.25 | 162.14 | 170.38 | 181.92 | 193.63 | 203.66 | 216.63
323.15 K | 152.45 | 160.18 | 166.78 | 175.7 | 186.63 | 198.28 | 209.59 | 222.76
328.15 K | 157.24 | 165.08 | 172 | 180.88 | 191.96 | 204.18 | 214.96 | –
333.15 K | 161.64 | 169.05 | 176.96 | 185.28 | 197.37 | 209.36 | 220.93 | 235.17

CC(=O)OC(C)=O [ethanoic anhydride] + CC(=O)O
molar heat capacity at constant pressure [J/K/mol], [2], Cooling curve
Conditions | x1 = 0.0613 | x1 = 0.1282 | x1 = 0.2013 | x1 = 0.2817 | x1 = 0.3704 | x1 = 0.4687 | x1 = 0.5785 | x1 = 0.7017 | x1 = 0.8411 | x1 = 1
308.15 K | 139.18 | 144.25 | 149.4 | 154.9 | 160.85 | 167.3 | 174.47 | 182.33 | 190.56 | 199.93
313.15 K | 139.82 | 144.91 | 150.09 | 155.59 | 161.58 | 168.08 | 175.28 | 183.12 | 191.49 | 200.73
318.15 K | 140.51 | 145.46 | 150.76 | 156.27 | 162.26 | 168.76 | 176.03 | 183.96 | 192.33 | 201.58
323.15 K | 141.12 | 145.9 | 151.31 | 156.85 | 162.89 | 169.45 | 176.76 | 184.78 | 193.23 | 202.53
328.15 K | 141.75 | 146.52 | 152.03 | 157.59 | 163.68 | 170.33 | 177.68 | 185.79 | 194.35 | 203.67
333.15 K | 142.23 | 147.13 | 152.51 | 158.1 | 164.24 | 170.89 | 178.31 | 186.44 | 195 | 204.34
